Laboratory results published in patent US20120029187A1, “HALOALKYLSULFONANILIDE DERIVATIVE” (Nissan Chemical Industries, Ltd., priority 2009, published 2012).

How the values were obtained:
Format in all cases: in vivo
transplanted rice = assay: Test Example 1: preemergence treatment under submerged conditions, effect on crop; conditions: dose 2.52 g/a
Outline: (§1)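 Alluvial soil was flooded to 4 cm, sown with barnyardgrass, bulrush and ducksalad, and planted with 2.5-leaf rice seedlings. On the seeding day, water-diluted emulsifiable concentrates were applied to the water surface at set doses (g/a). After three weeks in a 25 to 30° C. greenhouse, mortality was scored 0–5.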

common ragweed [1] = assay: Test Example 4: herbicidal effect in foliage treatment; conditions: dose 3.2 g/a, three weeks after the application
Outline: (§2)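 Seeds sown in sterilized diluvial soil under ~1.5 cm soil cover and grown 14 days in a greenhouse at 25 to 30° C. Emulsifiable concentrates diluted with water were then sprayed uniformly on foliage at predetermined doses (g/a). Herbicidal effect was scored three weeks after application on a graded evaluation scale.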

water foxtail [2] = assay: as above; conditions: dose 3.2 g/a, three weeks after the application
Outline: as §2

Italian ryegrass [3] = assay: as above; conditions: dose 3.2 g/a, three weeks after the application
Outline: as §2

giant foxtail [4] = assay: as above; conditions: dose 3.2 g/a, three weeks after the application
Outline: as §2

common lambsquater [5] = assay: as above; conditions: dose 3.2 g/a, three weeks after the application
Outline: as §2

beadstraw = assay: as above; conditions: dose 3.2 g/a, three weeks after the application
Outline: as §2

posumbu knotweed [6] = assay: as above; conditions: dose 3.2 g/a, three weeks after the application
Outline: as §2

wild oat = assay: as above; conditions: dose 3.2 g/a, three weeks after the application
Outline: as §2

common chickweed [7] = assay: as above; conditions: dose 3.2 g/a, three weeks after the application
Outline: as §2

redroot pigweed [8] = assay: as above; conditions: dose 3.2 g/a, three weeks after the application
Outline: as §2

large crabgrass [9] = assay: as above; conditions: dose 3.2 g/a, three weeks after the application
Outline: as §2

velvetleaf [10] = assay: as above; conditions: dose 3.2 g/a, three weeks after the application
Outline: as §2

barnyardgrass [11] = assay: as above; conditions: dose 3.2 g/a, three weeks after the application
Outline: as §2

ducksalad [12] = assay: Test Example 2: herbicidal effects during the vegetation period under submerged conditions; conditions: treatment during the vegetation period under submerged conditions; dose 2.52 g/a
Outline: (§3)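 Barnyardgrass, bulrush and ducksalad were co-sown in alluvial soil flooded to 4 cm and grown in a greenhouse at 25 to 30° C. At the 1- or 2-leaf stage, water-diluted emulsifiable concentrates went onto the water surface at set doses (g/a). Herbicidal effect was scored three weeks later on a graded scale.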

bulrush [13] = assay: as above; conditions: treatment during the vegetation period under submerged conditions; dose 2.52 g/a
Outline: as §3

barnyardgrass [14] = assay: as above; conditions: treatment during the vegetation period under submerged conditions; dose 2.52 g/a
Outline: as §3

ducksalad [15] = assay: Test Example 1: herbicidal effects in preemergence treatment under submerged conditions; conditions: dose 2.52 g/a
Outline: as §1

bulrush [16] = assay: as above; conditions: dose 2.52 g/a
Outline: as §1

barnyardgrass [17] = assay: as above; conditions: dose 2.52 g/a
Outline: as §1

common ragweed [18] = assay: Test Example 3: herbicidal effects in soil treatment; conditions: dose 3.2 g/a
Outline: (§4)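 Seeds were sown in sterilized diluvial soil and covered with about 1.5 cm of soil. Compounds, formulated as emulsifiable concentrates and diluted with water, were sprayed evenly over the soil surface at set doses in g/a. Herbicidal effect was scored on a rating scale three weeks later.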

water foxtail [19] = assay: as above; conditions: dose 3.2 g/a
Outline: as §4

Italian ryegrass [20] = assay: as above; conditions: dose 3.2 g/a
Outline: as §4

giant foxtail [21] = assay: as above; conditions: dose 3.2 g/a
Outline: as §4

common lambsquater [22] = assay: as above; conditions: dose 3.2 g/a
Outline: as §4

posumbu knotweed [23] = assay: as above; conditions: dose 3.2 g/a
Outline: as §4

common chickweed [24] = assay: as above; conditions: dose 3.2 g/a
Outline: as §4

redroot pigweed [25] = assay: as above; conditions: dose 3.2 g/a
Outline: as §4

large crabgrass [26] = assay: as above; conditions: dose 3.2 g/a
Outline: as §4

velvetleaf [27] = assay: as above; conditions: dose 3.2 g/a
Outline: as §4

barnyardgrass [28] = assay: as above; conditions: dose 3.2 g/a
Outline: as §4

| Structure (SMILES) | a: transplanted rice, effect on crop (evaluation scale 0-5) (transplanted rice) | J: common ragweed, herbicidal effect (common ragweed [1]) | G: water foxtail, herbicidal effect (water foxtail [2]) | H: Italian ryegrass, herbicidal effect (Italian ryegrass [3]) | E: giant foxtail, herbicidal effect (giant foxtail [4]) | L: common lambsquater, herbicidal effect (common lambsquater [5]) | O: beadstraw, herbicidal effect (beadstraw) | M: posumbu knotweed, herbicidal effect (posumbu knotweed [6]) | N: common chickweed, herbicidal effect (common chickweed [7]) | K: redroot pigweed, herbicidal effect (redroot pigweed [8]) | D: large crabgrass, herbicidal effect (large crabgrass [9]) | I: velvetleaf, herbicidal effect (velvetleaf [10]) | A: barnyardgrass, herbicidal effect (barnyardgrass [11]) | C: ducksalad, herbicidal effect (evaluation scale 0-5) (ducksalad [12]) | B: bulrush, herbicidal effect (evaluation scale 0-5) (bulrush [13]) | A: barnyardgrass, herbicidal effect (evaluation scale 0-5) (barnyardgrass [14]) | C: ducksalad, herbicidal effect (evaluation scale 0-5) (ducksalad [15]) | B: bulrush, herbicidal effect (evaluation scale 0-5) (bulrush [16]) | A: barnyardgrass, herbicidal effect (evaluation scale 0-5) (barnyardgrass [17]) | herbicidal effect, J: common ragweed (common ragweed [18]) | further results |
| --- | --- | --- | --- | --- | --- | --- | --- | --- | --- | --- | --- | --- | --- | --- | --- | --- | --- | --- | --- | --- | --- |
| CCOC(=O)N(c1ccccc1CN1COC(C)(C(F)(F)F)C(Br)C1=O)S(=O)(=O)C(F)(F)F (centres unmarked) [II-75] | 0 (mortality of less than 5% (almost ineffective)) | 0 (mortality of less than 5% (almost ineffective)) | 2 (mortality of at least 20% and less than 40%) | 3 (mortality of at least 40% and less than 70%) | 1 (mortality of at least 5% and less than 20%) | 4 (mortality of at least 70% and less than 90%) | 5 (mortality of 90% or above (nearly complete death)) | 1 (mortality of at least 5% and less than 20%) | 3 (mortality of at least 40% and less than 70%) | 3 (mortality of at least 40% and less than 70%) | 1 (mortality of at least 5% and less than 20%) | 3 (mortality of at least 40% and less than 70%) | 4 (mortality of at least 70% and less than 90%) | 5 (mortality of 90% or above (nearly complete death)) | 5 (mortality of 90% or above (nearly complete death)) | 5 (mortality of 90% or above (nearly complete death)) | 5 (mortality of 90% or above (nearly complete death)) | 5 (mortality of 90% or above (nearly complete death)) | 5 (mortality of 90% or above (nearly complete death)) | – | F: wild oat, herbicidal effect (wild oat): 0 (mortality of less than 5% (almost ineffective)) |
| CCC1CON(Cc2ccccc2N(C(=O)OCCCl)S(=O)(=O)C(F)(F)F)C(=O)O1 (centres unmarked) [III-7] | 0 (mortality of less than 5% (almost ineffective)) | 4 (mortality of at least 70% and less than 90%) | 5 (mortality of 90% or above (nearly complete death)) | 0 (mortality of less than 5% (almost ineffective)) | 3 (mortality of at least 40% and less than 70%) | 4 (mortality of at least 70% and less than 90%) | 2 (mortality of at least 20% and less than 40%) | 0 (mortality of less than 5% (almost ineffective)) | 3 (mortality of at least 40% and less than 70%) | 3 (mortality of at least 40% and less than 70%) | 3 (mortality of at least 40% and less than 70%) | 0 (mortality of less than 5% (almost ineffective)) | 5 (mortality of 90% or above (nearly complete death)) | 5 (mortality of 90% or above (nearly complete death)) | 5 (mortality of 90% or above (nearly complete death)) | 5 (mortality of 90% or above (nearly complete death)) | 5 (mortality of 90% or above (nearly complete death)) | 5 (mortality of 90% or above (nearly complete death)) | 5 (mortality of 90% or above (nearly complete death)) | 4 (mortality of at least 70% and less than 90%) | herbicidal effect, G: water foxtail (water foxtail [19]): 5 (mortality of 90% or above (nearly complete death)); herbicidal effect, H: Italian ryegrass (Italian ryegrass [20]): 4 (mortality of at least 70% and less than 90%); herbicidal effect, E: giant foxtail (giant foxtail [21]): 5 (mortality of 90% or above (nearly complete death)); herbicidal effect, L: common lambsquater (common lambsquater [22]): 4 (mortality of at least 70% and less than 90%); herbicidal effect, M: posumbu knotweed (posumbu knotweed [23]): 4 (mortality of at least 70% and less than 90%); herbicidal effect, N: common chickweed (common chickweed [24]): 5 (mortality of 90% or above (nearly complete death)); herbicidal effect, K: redroot pigweed (redroot pigweed [25]): 1 (mortality of at least 5% and less than 20%); herbicidal effect, D: large crabgrass (large crabgrass [26]): 5 (mortality of 90% or above (nearly complete death)); herbicidal effect, I: velvetleaf (velvetleaf [27]): 0 (mortality of less than 5% (almost ineffective)); herbicidal effect, A: barnyardgrass (barnyardgrass [28]): 5 (mortality of 90% or above (nearly complete death)) |
| CCOC(=O)N(c1ccccc1CN1OCC(C)(C)OC1=O)S(=O)(=O)C(F)(F)F [III-11] | 0 (mortality of less than 5% (almost ineffective)) | 4 (mortality of at least 70% and less than 90%) | 5 (mortality of 90% or above (nearly complete death)) | 3 (mortality of at least 40% and less than 70%) | 4 (mortality of at least 70% and less than 90%) | 4 (mortality of at least 70% and less than 90%) | 5 (mortality of 90% or above (nearly complete death)) | 4 (mortality of at least 70% and less than 90%) | 5 (mortality of 90% or above (nearly complete death)) | 2 (mortality of at least 20% and less than 40%) | 0 (mortality of less than 5% (almost ineffective)) | 4 (mortality of at least 70% and less than 90%) | 5 (mortality of 90% or above (nearly complete death)) | 5 (mortality of 90% or above (nearly complete death)) | 5 (mortality of 90% or above (nearly complete death)) | 5 (mortality of 90% or above (nearly complete death)) | 5 (mortality of 90% or above (nearly complete death)) | 5 (mortality of 90% or above (nearly complete death)) | 5 (mortality of 90% or above (nearly complete death)) | 5 (mortality of 90% or above (nearly complete death)) | herbicidal effect, G: water foxtail (water foxtail [19]): 5 (mortality of 90% or above (nearly complete death)); herbicidal effect, H: Italian ryegrass (Italian ryegrass [20]): 4 (mortality of at least 70% and less than 90%); herbicidal effect, E: giant foxtail (giant foxtail [21]): 5 (mortality of 90% or above (nearly complete death)); herbicidal effect, L: common lambsquater (common lambsquater [22]): 5 (mortality of 90% or above (nearly complete death)); herbicidal effect, M: posumbu knotweed (posumbu knotweed [23]): 5 (mortality of 90% or above (nearly complete death)); herbicidal effect, N: common chickweed (common chickweed [24]): 5 (mortality of 90% or above (nearly complete death)); herbicidal effect, K: redroot pigweed (redroot pigweed [25]): 3 (mortality of at least 40% and less than 70%); herbicidal effect, D: large crabgrass (large crabgrass [26]): 5 (mortality of 90% or above (nearly complete death)); herbicidal effect, I: velvetleaf (velvetleaf [27]): 4 (mortality of at least 70% and less than 90%); herbicidal effect, A: barnyardgrass (barnyardgrass [28]): 5 (mortality of 90% or above (nearly complete death)) |
